Drawing on ChEMBL document CHEMBL1150686, “Three new sesquiterpenes from the red alga Laurencia perforata” (J Nat Prod, 2003), this text covers Activity for 3 compounds.

The source made the active and inactive calls. The rule behind the calls is not given here.

Assay [1] addresses Human immunodeficiency virus type 1 reverse transcriptase (Human immunodeficiency virus 1) (UniProt Q72547). Nature of the assay: Inhibition of HIV1 reverse transcriptase.
Assay [2] can be described thus: Inhibition of protein tyrosine kinase.

For `C=C1[C@@H]2CC[C@]13[C@H](C)C(=O)[C@@H](O)[C@@H](C)[C@]3(C)C2` (relative stereo), the result in assay [1] and in assay [2] was inactive.

For the compound `CC1=CC[C@@]2(C)C(=C(C)C(=O)[C@H](O)[C@@H]2C)CC1`, the result in assay [1] and in assay [2] was inactive.

`CC1=CC[C@@]2(C)C(=C(C)C(=O)[C@H](O)[C@@H]2C)[C@H](O)C1` (relative stereo): the result in assay [1] and in assay [2] was inactive.
